From ChEMBL document CHEMBL3885861, “Open TG-GATES”

Species: Rattus norvegicus
Assay: Open TG-GATES - Regimen: Single
Format: toxicity, organism-based, Sprague-Dawley
Design: regimen Single, gender Male, age 6 weeks
Conditions: in vivo, ip, 24 h, route intraperitoneal injection; for Bas / Eos / Hb / Ht / Lym / MCH / MCHC / MCV / Mono / Neu / Plat / RBC / Ret / WBC: tissue Blood; for KIDNEY_L / KIDNEY_R / KIDNEY_TOTAL: tissue Kidney; for LIVER: tissue Liver; for A/G / ALP / ALT / AST / BUN / CRE / Ca / Cl / DBIL / GLC / IP / K / LDH / Na / PL / RALB / TBIL / TC / TG / TP / gamma-GTP: tissue Plasma

Structure (SMILES): CN(N=O)C(N)=O [N-METHYL-N-NITROSUREA]
- TERMINAL_BW (0 mg/kg, dose level Control): 240.3 g
- Bas (0 mg/kg, dose level Control): 0%
- Eos (0 mg/kg, dose level Control): 0.8%
- Hb (0 mg/kg, dose level Control): 12.5 g/dL
- Ht (0 mg/kg, dose level Control): 38.8%
- Lym (0 mg/kg, dose level Control): 78.8%
- MCH (0 mg/kg, dose level Control): 19.9 pg
- MCHC (0 mg/kg, dose level Control): 32.4%
- MCV (0 mg/kg, dose level Control): 61.6 fL
- Mono (0 mg/kg, dose level Control): 2.4%
- Neu (0 mg/kg, dose level Control): 17.6%
- Plat (0 mg/kg, dose level Control): 125.4 x10_4/uL
- RBC (0 mg/kg, dose level Control): 629.8 x10_4/ul
- Ret (0 mg/kg, dose level Control): 8.1%
- WBC (0 mg/kg, dose level Control): 104.4 x10_2/uL
- KIDNEY_L (0 mg/kg, dose level Control): 1 g
- KIDNEY_R (0 mg/kg, dose level Control): 1 g
- KIDNEY_TOTAL (0 mg/kg, dose level Control): 2 g
- LIVER (0 mg/kg, dose level Control): 11.1 g
- A/G (0 mg/kg, dose level Control): 1
- ALP (0 mg/kg, dose level Control): 1557.2 IU/L
- ALT (0 mg/kg, dose level Control): 41.2 IU/L
- AST (0 mg/kg, dose level Control): 72.8 IU/L
- BUN (0 mg/kg, dose level Control): 17.5 mg/dL
- CRE (0 mg/kg, dose level Control): 0.2 mg/dL
- Ca (0 mg/kg, dose level Control): 10.7 mg/dL
- Cl (0 mg/kg, dose level Control): 102.9 meq/L
- DBIL (0 mg/kg, dose level Control): 0 mg/dL
- GLC (0 mg/kg, dose level Control): 198 mg/dL
- IP (0 mg/kg, dose level Control): 7.1 mg/dL
- K (0 mg/kg, dose level Control): 4.2 meq/L
- LDH (0 mg/kg, dose level Control): 141.2 IU/L
- Na (0 mg/kg, dose level Control): 141.4 meq/L
- PL (0 mg/kg, dose level Control): 160 mg/dL
- RALB (0 mg/kg, dose level Control): 2.7 g/dL
- TBIL (0 mg/kg, dose level Control): 0.004 mg/dL
- TC (0 mg/kg, dose level Control): 79.4 mg/dL
- TG (0 mg/kg, dose level Control): 135 mg/dL
- TP (0 mg/kg, dose level Control): 5.6 g/dL
- gamma-GTP (0 mg/kg, dose level Control): 1 IU/L
- TERMINAL_BW (10 mg/kg, dose level Low): 233.4 g
- Bas (10 mg/kg, dose level Low): 0%
- Eos (10 mg/kg, dose level Low): 0.2%
- Hb (10 mg/kg, dose level Low): 13 g/dL
- Ht (10 mg/kg, dose level Low): 39.7%
- Lym (10 mg/kg, dose level Low): 90.2%
- MCH (10 mg/kg, dose level Low): 19.9 pg
- MCHC (10 mg/kg, dose level Low): 32.8%
- MCV (10 mg/kg, dose level Low): 60.7 fL
- Mono (10 mg/kg, dose level Low): 2.6%
- Neu (10 mg/kg, dose level Low): 5.6%
- Plat (10 mg/kg, dose level Low): 126.2 x10_4/uL
- RBC (10 mg/kg, dose level Low): 653 x10_4/ul
- Ret (10 mg/kg, dose level Low): 5.7%
- WBC (10 mg/kg, dose level Low): 66.8 x10_2/uL
- KIDNEY_L (10 mg/kg, dose level Low): 1 g
- KIDNEY_R (10 mg/kg, dose level Low): 1 g
- KIDNEY_TOTAL (10 mg/kg, dose level Low): 2.1 g
- LIVER (10 mg/kg, dose level Low): 10.9 g
- A/G (10 mg/kg, dose level Low): 1
- ALP (10 mg/kg, dose level Low): 1481.4 IU/L
- ALT (10 mg/kg, dose level Low): 33.4 IU/L
- AST (10 mg/kg, dose level Low): 65.8 IU/L
- BUN (10 mg/kg, dose level Low): 16.9 mg/dL
- CRE (10 mg/kg, dose level Low): 0.1 mg/dL
- Ca (10 mg/kg, dose level Low): 10.6 mg/dL
- Cl (10 mg/kg, dose level Low): 102.9 meq/L
- DBIL (10 mg/kg, dose level Low): 0.004 mg/dL
- GLC (10 mg/kg, dose level Low): 198 mg/dL
- IP (10 mg/kg, dose level Low): 7.2 mg/dL
- K (10 mg/kg, dose level Low): 4.1 meq/L
- LDH (10 mg/kg, dose level Low): 138.4 IU/L
- Na (10 mg/kg, dose level Low): 141 meq/L
- PL (10 mg/kg, dose level Low): 167.6 mg/dL
- RALB (10 mg/kg, dose level Low): 2.9 g/dL
- TBIL (10 mg/kg, dose level Low): 0.01 mg/dL
- TC (10 mg/kg, dose level Low): 85.6 mg/dL
- TG (10 mg/kg, dose level Low): 118.8 mg/dL
- TP (10 mg/kg, dose level Low): 5.7 g/dL
- gamma-GTP (10 mg/kg, dose level Low): 0.8 IU/L
- TERMINAL_BW (30 mg/kg, dose level Middle): 227.7 g
- Bas (30 mg/kg, dose level Middle): 0%
- Eos (30 mg/kg, dose level Middle): 0%
- Hb (30 mg/kg, dose level Middle): 11.8 g/dL
- Ht (30 mg/kg, dose level Middle): 35.8%
- Lym (30 mg/kg, dose level Middle): 80.2%
- MCH (30 mg/kg, dose level Middle): 20.8 pg
- MCHC (30 mg/kg, dose level Middle): 32.9%
- MCV (30 mg/kg, dose level Middle): 63.3 fL
- Mono (30 mg/kg, dose level Middle): 3.2%
- Neu (30 mg/kg, dose level Middle): 15.4%
- Plat (30 mg/kg, dose level Middle): 127.5 x10_4/uL
- RBC (30 mg/kg, dose level Middle): 566 x10_4/ul
- Ret (30 mg/kg, dose level Middle): 4.9%
- WBC (30 mg/kg, dose level Middle): 34.5 x10_2/uL
- KIDNEY_L (30 mg/kg, dose level Middle): 1 g
- KIDNEY_R (30 mg/kg, dose level Middle): 1 g
- KIDNEY_TOTAL (30 mg/kg, dose level Middle): 2 g
- LIVER (30 mg/kg, dose level Middle): 9.9 g
- A/G (30 mg/kg, dose level Middle): 0.9
- ALP (30 mg/kg, dose level Middle): 1270.8 IU/L
- ALT (30 mg/kg, dose level Middle): 35.2 IU/L
- AST (30 mg/kg, dose level Middle): 70 IU/L
- BUN (30 mg/kg, dose level Middle): 17.6 mg/dL
- CRE (30 mg/kg, dose level Middle): 0.1 mg/dL
- Ca (30 mg/kg, dose level Middle): 10.4 mg/dL
- Cl (30 mg/kg, dose level Middle): 103.6 meq/L
- DBIL (30 mg/kg, dose level Middle): 0.01 mg/dL
- GLC (30 mg/kg, dose level Middle): 196 mg/dL
- IP (30 mg/kg, dose level Middle): 8.3 mg/dL
- K (30 mg/kg, dose level Middle): 3.9 meq/L
- LDH (30 mg/kg, dose level Middle): 151 IU/L
- Na (30 mg/kg, dose level Middle): 141.8 meq/L
- PL (30 mg/kg, dose level Middle): 150.4 mg/dL
- RALB (30 mg/kg, dose level Middle): 2.7 g/dL
- TBIL (30 mg/kg, dose level Middle): 0.022 mg/dL
- TC (30 mg/kg, dose level Middle): 82.6 mg/dL
- TG (30 mg/kg, dose level Middle): 51.7 mg/dL
- TP (30 mg/kg, dose level Middle): 5.6 g/dL
- gamma-GTP (30 mg/kg, dose level Middle): 1 IU/L
- TERMINAL_BW (100 mg/kg, dose level High): 207.9 g
- Bas (100 mg/kg, dose level High): 0%
- Eos (100 mg/kg, dose level High): 0%
- Hb (100 mg/kg, dose level High): 13.8 g/dL
- Ht (100 mg/kg, dose level High): 41.1%
- Lym (100 mg/kg, dose level High): 14.2%
- MCH (100 mg/kg, dose level High): 20.5 pg
- MCHC (100 mg/kg, dose level High): 33.5%
- MCV (100 mg/kg, dose level High): 61.1 fL
- Mono (100 mg/kg, dose level High): 3.2%
- Neu (100 mg/kg, dose level High): 82%
- Plat (100 mg/kg, dose level High): 117.5 x10_4/uL
- RBC (100 mg/kg, dose level High): 673.6 x10_4/ul
- Ret (100 mg/kg, dose level High): 4.4%
- WBC (100 mg/kg, dose level High): 13.1 x10_2/uL
- KIDNEY_L (100 mg/kg, dose level High): 1 g
- KIDNEY_R (100 mg/kg, dose level High): 1 g
- KIDNEY_TOTAL (100 mg/kg, dose level High): 1.9 g
- LIVER (100 mg/kg, dose level High): 9.7 g
- A/G (100 mg/kg, dose level High): 1
- ALP (100 mg/kg, dose level High): 1181 IU/L
- ALT (100 mg/kg, dose level High): 28.6 IU/L
- AST (100 mg/kg, dose level High): 113 IU/L
- BUN (100 mg/kg, dose level High): 16.2 mg/dL
- CRE (100 mg/kg, dose level High): 0.1 mg/dL
- Ca (100 mg/kg, dose level High): 10.3 mg/dL
- Cl (100 mg/kg, dose level High): 101.6 meq/L
- DBIL (100 mg/kg, dose level High): 0.01 mg/dL
- GLC (100 mg/kg, dose level High): 197.8 mg/dL
- IP (100 mg/kg, dose level High): 8.2 mg/dL
- K (100 mg/kg, dose level High): 3.6 meq/L
- LDH (100 mg/kg, dose level High): 166.4 IU/L
- Na (100 mg/kg, dose level High): 142.3 meq/L
- PL (100 mg/kg, dose level High): 150.4 mg/dL
- RALB (100 mg/kg, dose level High): 2.7 g/dL
- TBIL (100 mg/kg, dose level High): 0.016 mg/dL
- TC (100 mg/kg, dose level High): 75.8 mg/dL
- TG (100 mg/kg, dose level High): 59.3 mg/dL
- TP (100 mg/kg, dose level High): 5.4 g/dL
- gamma-GTP (100 mg/kg, dose level High): 0.7 IU/L
